Results as given in patent US20200264182A1, “METHOD FOR DETECTING PROSTATE CANCER” (J-OIL MILLS, INC., priority 2017, published 2020).

Test: FAC binding constant
Settings: at 25° C.
Method: Details of the FAC method are described in Patent Document 2 filed by some of the present applicants, for example.
Binding constants (at 25° C.) of PhoSL, SRL, NSL and LSL belonging to the fucose α1→6 specific lectin for various sugar chains are shown in Tables 2 to 5.

NSL: fucose α1→6 specific lectin that can be extracted from Naematoloma sublateritium, SEQ ID No. 4 or 5
Binding constant for sugar chain No. 313 (sugar chain having no fucose): <1000 M⁻¹ | Binding constant for sugar chain No. 314 (sugar chain having no fucose): <1000 M⁻¹ | Binding constant for sugar chain No. 323 (sugar chain having no fucose): <1000 M⁻¹ | Binding constant for sugar chain No. 501 (sugar chain having no fucose): <1000 M⁻¹ | Binding constant for sugar chain No. 502 (sugar chain having no fucose): <1000 M⁻¹ | Binding constant for sugar chain No. 503 (sugar chain having no fucose): <1000 M⁻¹ | Binding constant for sugar chain No. 504 (sugar chain having no fucose): <1000 M⁻¹ | Binding constant for sugar chain No. 701 (sugar chain having no fucose): <1000 M⁻¹ | Binding constant for sugar chain No. 702 (sugar chain having no fucose): <1000 M⁻¹ | Binding constant for sugar chain No. 703 (sugar chain having no fucose): <1000 M⁻¹ | Binding constant for sugar chain No. 704 (sugar chain having no fucose): <1000 M⁻¹ | Binding constant for sugar chain No. 705 (sugar chain having no fucose): <1000 M⁻¹ | Binding constant for sugar chain No. 706 (sugar chain having no fucose): <1000 M⁻¹ | Binding constant for sugar chain No. 707 (sugar chain having no fucose): <1000 M⁻¹ | Binding constant for sugar chain No. 708 (sugar chain having no fucose): <1000 M⁻¹ | Binding constant for sugar chain No. 709 (sugar chain having no fucose): <1000 M⁻¹ | Binding constant for sugar chain No. 710 (sugar chain having no fucose): <1000 M⁻¹ | Binding constant for sugar chain No. 711 (sugar chain having no fucose): <1000 M⁻¹ | Binding constant for sugar chain No. 712 (sugar chain having no fucose): <1000 M⁻¹ | Binding constant for sugar chain No. 713 (sugar chain having no fucose): <1000 M⁻¹ | Binding constant for sugar chain No. 715 (sugar chain having no fucose): <1000 M⁻¹ | Binding constant for sugar chain No. 716 (sugar chain having no fucose): <1000 M⁻¹ | Binding constant for sugar chain No. 717 (sugar chain having no fucose): <1000 M⁻¹ | Binding constant for sugar chain No. 724 (sugar chain having no fucose): <1000 M⁻¹ | Binding constant for sugar chain No. 725 (sugar chain having no fucose): <1000 M⁻¹ | Binding constant for sugar chain No. 732 (sugar chain having no fucose): <1000 M⁻¹ | Binding constant for sugar chain No. 733 (sugar chain having no fucose): <1000 M⁻¹ | Binding constant for sugar chain No. 734 (sugar chain having no fucose): <1000 M⁻¹ | Binding constant for sugar chain No. 735 (sugar chain having no fucose): <1000 M⁻¹ | Binding constant for sugar chain No. 736 (sugar chain having no fucose): <1000 M⁻¹ | Binding constant for sugar chain No. 737 (sugar chain having no fucose): <1000 M⁻¹ | Binding constant for sugar chain No. 738 (sugar chain having no fucose): <1000 M⁻¹ | Binding constant for sugar chain No. 901 (sugar chain having no fucose): <1000 M⁻¹ | Binding constant for sugar chain No. 902 (sugar chain having no fucose): <1000 M⁻¹ | Binding constant for sugar chain No. 903 (sugar chain having no fucose): <1000 M⁻¹ | Binding constant for sugar chain No. 905 (sugar chain having no fucose): <1000 M⁻¹ | Binding constant for sugar chain No. 906 (sugar chain having no fucose): <1000 M⁻¹ | Binding constant for sugar chain No. 907 (sugar chain having no fucose): <1000 M⁻¹ | Binding constant for sugar chain No. 015 (sugar chain having α1→6 fucose): 36000 M⁻¹ | Binding constant for sugar chain No. 201 (sugar chain having α1→6 fucose): 38000 M⁻¹ | Binding constant for sugar chain No. 202 (sugar chain having α1→6 fucose): 39000 M⁻¹ | Binding constant for sugar chain No. 203 (sugar chain having α1→6 fucose): 30000 M⁻¹ | Binding constant for sugar chain No. 401 (sugar chain having α1→6 fucose): 51000 M⁻¹ | Binding constant for sugar chain No. 402 (sugar chain having α1→6 fucose): 36000 M⁻¹ | Binding constant for sugar chain No. 403 (sugar chain having α1→6 fucose): 52000 M⁻¹ | Binding constant for sugar chain No. 404 (sugar chain having α1→6 fucose): 43000 M⁻¹ | Binding constant for sugar chain No. 405 (sugar chain having α1→6 fucose): 50000 M⁻¹ | Binding constant for sugar chain No. 406 (sugar chain having α1→6 fucose): 23000 M⁻¹ | Binding constant for sugar chain No. 410 (sugar chain having α1→6 fucose): 220000 M⁻¹ | Binding constant for sugar chain No. 413 (sugar chain having α1→6 fucose): 280000 M⁻¹ | Binding constant for sugar chain No. 418 (sugar chain having α1→6 fucose): 220000 M⁻¹ | Binding constant for sugar chain No. 601 (sugar chain having α1→6 fucose): 240000 M⁻¹ | Binding constant for sugar chain No. 602 (sugar chain having α1→6 fucose): 120000 M⁻¹
